# Laboratory results reported in paper PMC4700930 (Nature, 2015).
# Like-named read-outs stand apart in the source and are kept apart here. Numbered stars: 1 amine (or outer) side, 2 acyl side, 3 side chain; on linkers, the order of the positions; unused ones are H or OH. Bridge positions count the residues as written; N and C are the ends. Square brackets hold non-standard residues; d marks the D form. Peptide text beside a SMILES is read from it. I, II: the chains in the order shown. Actinocin(9to1) = Cc1c2oc3c(C)ccc(C(=O)[*:1])c3nc-2c(C(=O)[*:2])c(N)c1=O; NMeV = CN[C@H](C(=O)O)C(C)C; Sar = CNCC(=O)O
# Assays:
# [1] = test system: DNA/RNA synthesis in P. falciparum 3D7; experiment: Metabolic labelling with [3H]-hypoxanthine; format: cell-based, Plasmodium falciparum; details: sensitive and drug-resistant parasites
# [2] = test system: GFP-transfected P. berghei ANKA strain; details: for Survival days / Activity %: oral single dose
# [3] = test system: P. berghei liver stages; experiment: Plasmodium berghei luciferase liver stage assay
# [4] = Plasma protein binding, equilibrium dialysis; format: in vitro ADME, mouse, rat, human
# [5] = Mutagenicity
# [6] = Dog pharmacokinetics; format: in vivo; details: Intravenous 1 mg/kg
# [7] = Mouse pharmacokinetics; format: in vivo; details: Intravenous 1 mg/kg
# [8] = test system: luciferase-expressing P. berghei sporozoites; details: blood sampling from the mice
# [9] = test system: P. vivax clinical isolates; experiment: Ex vivo P. vivax field isolates assay; format: cell-based, Plasmodium vivax; details: read-out: median EC50, P. vivax clinical isolates, isolates from Papua (Indonesia)
# [10] = test system: MRC5 (human foetal lung fibroblasts); experiment: Cytotoxicity against mammalian cells, resazurin assay, MRC5; format: cell-based
# [11] = test system: DDD107498-resistant P. falciparum lines; experiment: SYBR Green growth assay on DDD107498-selected resistant lines; format: cell-based; details: Plasmodium falciparum
# [12] = Rat pharmacokinetics; format: in vivo
# [13] = test system: P. falciparum NF54; experiment: Stage specificity studies in P. falciparum, synchronised cultures; format: cell-based, Plasmodium falciparum; details: 4nM for 24 h
# [14] = test system: Plasmodium falciparum strain 3D7; experiment: P. falciparum; format: cell-based
# [15] = test system: P. falciparum Pf3D7^0087/N9; format: in vivo, Plasmodium falciparum
# [16] = test system: P. falciparum; experiment: Parasite Reduction Ratio
# [17] = test system: P. falciparum clinical isolates; experiment: Ex vivo P. falciparum field isolates assay; format: cell-based; details: Plasmodium falciparum
# [18] = test system: P. falciparum strains K1, W2, 7G8, TM90C2A, D6, V1/S, NF54; experiment: P. falciparum; format: cell-based, Plasmodium falciparum; details: compared with 3D7
# [19] = test system: P. berghei ookinetes; experiment: P. berghei ookinete development assay; details: Plasmodium berghei, read-out: EC50, P. berghei ookinete
# [20] = test system: liver schizont forms of P. yoelii; experiment: P. yoelii liver stage assay; format: cell-based; details: Plasmodium yoelii, read-out: EC50, P. yoelii liver stage, liver schizont forms
# [21] = test system: P. berghei (PbGFPCON507); format: in vivo, Plasmodium berghei
# [22] = 30 mg/kg, murine P. berghei model
# [23] = male, Sprague Dawley, rat, blood, po, 5 mg/kg
smiles,measurement,setting,value
C[C@@H]1C[C@@H]([C@H](O)CC2CC(=O)NC(=O)C2)C(=O)[C@@H](C)C1 [cycloheximide],effect on DNA/RNA biosynthesis ([3H]-hypoxanthine incorporation),[1],minimal effects
CCN(CC)CCCC(C)Nc1ccnc2cc(Cl)ccc12 (stereo not drawn) [Chloroquine],Survival days,[2]; 3 mg/kg,7 days
same,Survival days,[2]; 10 mg/kg,7 days
same,Survival days,[2]; 30 mg/kg,10 days
"O=C1C(O)=C([C@H]2CC[C@H](c3ccc(Cl)cc3)CC2)C(=O)c2ccccc21 [Atovaquone, reference compound]",EC50,"[3]; read-out: EC50, P. berghei liver stage, continuous treatment",0.3 nM
"Cc1c2oc3c(C)ccc(C(=O)N[C@@H]4C(=O)N[C@H](C(C)C)C(=O)N5CCC[C@H]5C(=O)N(C)CC(=O)N(C)[C@@H](C(C)C)C(=O)O[C@@H]4C)c3nc-2c(C(=O)N[C@@H]2C(=O)N[C@H](C(C)C)C(=O)N3CCC[C@H]3C(=O)N(C)CC(=O)N(C)[C@@H](C(C)C)C(=O)O[C@@H]2C)c(N)c1=O [actinomycin D] (I: T[dV]P[Sar][NMeV] / II: T[dV]P[Sar][NMeV]; ester I:1-I:C, II:1-II:C; linker I:N-II:N via Actinocin(9to1))",effect on DNA/RNA biosynthesis ([3H]-hypoxanthine incorporation),[1],significant dose-dependent reduction
C[C@H]1[C@@H](O)O[C@@H]2O[C@@]3(C)CC[C@H]4[C@H](C)CC[C@@H]1[C@@]24OO3 [Dihydroartemsinin],Activity %,[2]; 3 mg/kg,61%
same,Survival days,[2]; 3 mg/kg,7 days
same,Activity %,[2]; 10 mg/kg,97%
same,Survival days,[2]; 10 mg/kg,6 days
same,Survival days,[2]; 30 mg/kg,7 days
same,Activity %,[2]; [22],99%
OC(c1cc(C(F)(F)F)nc2c(C(F)(F)F)cccc12)C1CCCCN1 (stereo not drawn) [Mefloquine],Activity %,[2]; 3 mg/kg,<40%
same,Survival days,[2]; 3 mg/kg,7 days
same,Activity %,[2]; 10 mg/kg,95%
same,Survival days,[2]; 10 mg/kg,16 days
same,Survival days,[2]; 30 mg/kg,22 days
O=C(NCCN1CCCC1)c1cc(-c2ccc(CN3CCOCC3)cc2)nc2ccc(F)cc12 [DDD107498],Activity %,[2]; 3 mg/kg,99%
same,Survival days,[2]; 3 mg/kg,9 days
same,Activity %,[2]; 10 mg/kg,99.0%
same,Survival days,[2]; 10 mg/kg,14 days
same,Survival days,[2]; 30 mg/kg,23 days
same,Activity %,[2]; [22],99.1%
same,ED90 (90% reduction in parasitaemia),"[2]; single oral dose, mice infected with P. berghei",0.57 mg/kg
same,protein binding,[4],low protein binding
same,mutagenicity,[5],non-mutagenic
same,CI,[6],30 mL/min/g
same,CI,[7],12 mL/min/g
same,effect on DNA/RNA biosynthesis ([3H]-hypoxanthine incorporation),[1],minimal effects
same,"MPC, chemoprotection",[8],15 to 20 ng/mL
same,EC50,[9],0.51 nM
same,"selectivity, human cells (MRC5 and Hep-G2) over parasite",[10],"> 20,000 fold"
same,IC50,"[11]; DD2, read-out: DDD107498 IC50, WT Dd2",0.14 nM
same,IC50,"[11]; read-out: DDD107498 IC50, high-level resistant line EF2-L775F",660 nM
same,IC50,"[11]; read-out: DDD107498 IC50, high-level resistant line EF2-Y186N",3100 nM
same,IC50,"[11]; read-out: DDD107498 IC50, low-level resistant line EF2-E134D",5.8 nM
same,CI,"[12]; Rat, Intravenous 1 mg/kg",18 mL/min/g
same,bioavailability,[12]; [23],84%
same,half-life,[12]; [23],18 h
same,effect from the ring stage,[13],formation of abnormal trophozoites
same,"reduction in parasites, from the schizont stage",[13],98%
same,"reduction in parasites, from the trophozoite stage",[13],50%
same,EC99 against 3D7 parasites,"[14]; P. falciparum 3D7, n=39",5.9 nM
same,EC50,"[14]; Plasmodium falciparum, 3D7, read-out: EC50 against 3D7 parasites",1 nM
same,EC90,"[14]; Plasmodium falciparum, 3D7, read-out: EC90 against 3D7 parasites",2.4 nM
same,minimum parasiticidal concentration (MPC),"[15]; asexual blood stage infections, blood of infected SCID mice",10 to 13 ng/mL
same,ED90 on day 7 after infection,"[15]; dosed orally daily for 4 days, SCID mice, P. falciparum",0.95 mg/kg per day
same,lag before killing (effects reversible following wash-out),[16]; 10 × EC50,24 to 48 h
same,concentration sufficient to produce maximal killing effects,"[16]; tested at 0.1, 0.3, 1, 3 and 10 × EC50",≥ 1 × EC50
same,EC50,"[17]; read-out: Range of EC50, P. falciparum clinical isolates",0.29 to 3.29 nM
same,EC50,"[17]; read-out: median EC50, P. falciparum clinical isolates",0.81 nM
same,activity against drug-resistant strains,[18],almost equally active
same,EC50,"[3]; read-out: EC50, P. berghei liver stage, liver schizont forms",~1 nM
same,EC50,[19],5 nM
same,EC50,[20],~1 nM
same,TB effect- sporozoite intensity,[21]; 3 mg/kg oral,93.8%
same,TB effect- sporozoite prevalence,[21]; 3 mg/kg oral,88.6%
same,reduction in infected mosquitoes (TB effect- oocyst prevalence),"[21]; 3 mg/kg oral, day 10",90.7%
same,reduction in oocysts per midgut (TB effect- oocyst intensity),"[21]; 3 mg/kg oral, day 10",98.8%
same,Inhibition in infection of naïve mice,"[21]; 3 mg/kg oral, multiple mosquito biting rates",89.5%
same,Effect size,"[21]; chain binomial model, reduction of R0, 100% coverage",90.5%
CO[C@H]1O[C@@H]2O[C@@]3(C)CC[C@H]4[C@H](C)CC[C@@H]([C@H]1C)[C@@]24OO3 [Artemether],Activity %,[2]; 3 mg/kg,59%
same,Survival days,[2]; 3 mg/kg,6 days
same,Activity %,[2]; 10 mg/kg,89%
same,Survival days,[2]; 10 mg/kg,6 days
same,Survival days,[2]; 30 mg/kg,7 days
same,Activity %,[2]; [22],98%
C[C@H]1[C@H](OC(=O)CCC(=O)O)O[C@@H]2O[C@@]3(C)CC[C@H]4[C@H](C)CC[C@@H]1[C@@]24OO3 [Artesunate],Activity %,[2]; 3 mg/kg,<40%
same,Survival days,[2]; 3 mg/kg,6 days
same,Activity %,[2]; 10 mg/kg,75%
same,Survival days,[2]; 10 mg/kg,6 days
same,Survival days,[2]; 30 mg/kg,9 days
